Entries after “also recorded” stand apart in the source; their conditions may differ. Counter-ions that a name gives are not always drawn.
What was measured:
[1] = target: T1, ACE2 (Homo sapiens, UniProt Q9BYF1); details: in vitro and in vivo; Shenoy et al; cited from earlier work
Target sequence in this assay (Q9BYF1 18-805, species assumed): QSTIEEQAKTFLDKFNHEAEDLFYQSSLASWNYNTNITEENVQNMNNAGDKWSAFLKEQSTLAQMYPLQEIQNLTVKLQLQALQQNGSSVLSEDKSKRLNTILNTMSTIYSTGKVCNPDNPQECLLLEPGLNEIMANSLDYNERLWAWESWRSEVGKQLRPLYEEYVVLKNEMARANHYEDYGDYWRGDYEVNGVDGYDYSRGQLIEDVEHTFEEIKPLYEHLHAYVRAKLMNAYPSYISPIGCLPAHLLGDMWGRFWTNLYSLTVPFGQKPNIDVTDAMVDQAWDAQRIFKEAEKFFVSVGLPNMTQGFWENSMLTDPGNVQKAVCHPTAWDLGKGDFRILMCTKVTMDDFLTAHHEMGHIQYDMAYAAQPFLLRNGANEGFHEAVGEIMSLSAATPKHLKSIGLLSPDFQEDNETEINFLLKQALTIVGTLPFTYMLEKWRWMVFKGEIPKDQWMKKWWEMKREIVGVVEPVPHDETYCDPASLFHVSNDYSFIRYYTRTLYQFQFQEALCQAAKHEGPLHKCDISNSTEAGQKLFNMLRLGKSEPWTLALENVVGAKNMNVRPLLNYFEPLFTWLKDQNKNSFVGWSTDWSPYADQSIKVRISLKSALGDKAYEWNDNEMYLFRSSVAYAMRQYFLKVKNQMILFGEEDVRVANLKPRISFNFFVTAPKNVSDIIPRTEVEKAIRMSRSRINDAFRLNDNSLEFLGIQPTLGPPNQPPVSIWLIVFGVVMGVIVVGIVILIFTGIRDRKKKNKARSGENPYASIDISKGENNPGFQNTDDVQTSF

[2] = system: tyrosinase (TYR); assay: Tyrosinase (TYR) expression in B16F10 cells by real-time RT-PCR; format: cell-based, mouse; details: 1 nM aMSH + 10 ng/μl DIZE, 48 hours, FIG. 7; dihydrochloride
Description: B16F10 mouse melanoma cells were incubated with 1 nM aMSH, 10 ng/μl diminazene aceturate (DIZE, ACE2 activator) or a combination of both for 48 hours and the expression of the melanin-synthesizing enzyme tyrosinase (TYR) was quantified by real-time RT-PCR; **p<0.01; *p<0.05.
B16F10 mouse melanoma cells were incubated with 1 nM aMSH, 10 ng/μl diminazene aceturate (DIZE, ACE2 activator) or a combination of both for 48 hours and the expression of the melanin-synthesizing enzyme tyrosinase (TYR) was quantified by real-time RT-PCR.

[3] = system: ACE2; assay: ACE2 expression in B16F10 cells by real-time RT-PCR; format: cell-based, mouse; details: 10 ng/μl DIZE, 48 hours, FIG. 8
Description: B16F10 mouse melanoma cells were incubated with 10 ng/μl diminazene aceturate (DIZE, ACE2 activator) for 48 hours and the expression of ACE2 was quantified by real-time RT-PCR; *p<0.05.

[4] = system: B16F10 mouse melanoma cells; assay: Cell culture assay for melanogenesis in B16F10 melanoma cells; format: cell-based
Source text: FIG. 2: Melanogenesis in B16F10 melanoma cells stimulated with α-MSH1-13 and α-MSH1-12. *** p<0.001 compared to control without α-MSH, +++, +p<0.001, p<0.05 α-MSH1-12 compared to the same concentration of α-MSH1-13.
In wild-type mice, the inventors further confirmed previous studies in humans (Ham-ming et al., 2004, Grzegrzolka et al., 2013) showing that ACE2 is expressed in the skin.

[5] = target: T1, ACE2; details: ACE2 inhibitor; cited from earlier work
Target sequence in this assay (Q9BYF1 18-805, species assumed): as above

[6] = system: human abdominal skin biopsies; assay: Fontana-Masson melanin staining in human abdominal skin biopsies; format: cell-based; details: FIG. 5
Description: FIG. 5: ACE2 limits the efficiency of αMSH1-13 in human skin; Fontana-Masson staining in human abdominal skin biopsies. Melanin was stained black by Fontana-Masson staining in human abdominal skin biopsies after treatment with vehicle, 10 nM αMSH1-13, or 10 nM αMSH1-13+100 nM of the ACE2-Inhibitor MLN476.
(§1) Biopsies were treated with vehicle, 10 nM αMSH1-13, 10 nM αMSH1-13+100 nM of the ACE2-Inhibitor MLN4760, or 100 nM MLN4760 alone.

[7] = system: Tyrosinase; assay: Tyrosinase mRNA expression in human abdominal skin biopsies; format: cell-based; details: for tyrosinase mRNA expression: FIG. 4
Description: FIG. 4: ACE2 limits the efficiency of αMSH1-13 in human skin; Tyrosinase expression. Tyrosinase (melanin synthesizing enzyme) mRNA expression was measured in human abdominal skin biopsies after treatment with vehicle, 10 nM αMSH1-13, 10 nM αMSH1-13+100 nM of the ACE2-Inhibitor MLN4760, or 100 nM MLN4760 alone.
as §1

[8] = target: T1, ACE2; details: Hernandez Prada et al; cited from earlier work
Target sequence in this assay (Q9BYF1 18-805, species assumed): as above

[9] = target: T1, ACE2; set-up: purchased Enzo life sciences, Plymouth meeting, PA; details: Kulemina and Ostrov; cited from earlier work
Target sequence in this assay (Q9BYF1 18-805): as the sequence (Q9BYF1 18-805, species assumed) above

[10] = target: T1, ACE2; details: Mores et al; read-out: Ki value toward ACE2; cited from earlier work
Target sequence in this assay (Q9BYF1 18-805, species assumed): as above

## N=C(N)c1ccc(/N=N/Nc2ccc(C(=N)N)cc2)cc1 [DIZE, 4-[2-(4-carbamimidoylphenyl)iminohydrazinyl]benzenecarboximidamide dihydrochloride]
[1]
  enhancement of the enzymatic activity of ACE2: enhance the enzymatic activity of ACE2
[2]
  tyrosinase (TYR) expression, effect on αMSH stimulation: inhibits the stimulating effect of aMSH; also recorded: inhibits the stimulating effect of αMSH
[3]
  ACE2 expression: stimulates ACE2 expression

## CC(C)C[C@H](N[C@@H](Cc1cncn1Cc1cc(Cl)cc(Cl)c1)C(=O)O)C(=O)O [MLN-4760, (2S)-2-[[(1S)-1-carboxy-2-[3-[(3,5-dichlorophenyl)methyl]imidazol-4-yl]ethyl]amino]-4-methylpentanoic acid]
[4]; B16F10 cells, α-MSH1-13 + human recombinant ACE2, FIG. 3
  effect on the ACE2-mediated inhibition of α-MSH1-13 melanogenic effect: inhibits the effect of ACE2
[5]
  IC50: 0.5 nM
[6]; 10 nM αMSH1-13 + 100 nM ACE2 inhibitor
  melanin levels (Fontana-Masson staining), effect on αMSH1-13 increase: This effect is further increased by ACE2 inhibition
[7]; 10 nM αMSH1-13 + 100 nM MLN4760, FIG. 4
  tyrosinase mRNA expression, effect on αMSH1-13 stimulation: This effect is increased by ACE2 inhibition
[7]; 100 nM MLN4760 alone
  tyrosinase mRNA expression: ACE2 inhibition alone already stimulates tyrosinase expression

## Cc1ccc(S(=O)(=O)Oc2ccc3oc4c(CO)ccc(NCCN(C)C)c4c(=O)c3c2)cc1 [XNT, [8-(2-dimethylaminoethylamino)-5-(hydroxymethyl)-9-oxoxanthen-2-yl]4-methyl-benzenesulfonate]
[8]
  enhancement of ACE2 activity: enhance ACE2 activity in a dose-dependent manner
[9]
  increase of the velocity of the enzyme (rate of catalysis): approximately twofold

## CC(=O)NC(Cc1c[nH]cn1)C(=O)N1CCCC1P(=O)(O)CC(Cc1cc(-c2ccccc2)no1)C(=O)O (stereo not shown) [compound 41]
[10]
  Ki: 0.4 nM

## O=C1OC2(c3ccc(O)cc3Oc3cc(O)ccc32)c2cccc3cccc1c23 [resorcinolnaphthalein]
[8]
  enhancement of ACE2 activity: enhance ACE2 activity in a dose-dependent manner

## human recombinant ACE2: human recombinant angiotensin-converting enzyme 2
[4]; B16F10 cells, with α-MSH1-13, FIG. 3 upper panel
  effect of added ACE2 on melanogenic activity of α-MSH1-13: Inhibition of the melanogenic effect of α-MSH1-13; also recorded: reduces its melanogenic activity

## α-MSH1-12: expected ACE2 digestion product of α-MSH1-13 (SYSMEHFRWGKP)
[4]; B16F10 mouse melanoma cells, FIG. 2
  melanogenic activity relative to α-MSH1-13: at least 100 times less active

## α-MSH1-13: α-melanocyte stimulating hormone, 13-amino-acid peptide hormone
[6]; 10 nM αMSH1-13 vs vehicle
  melanin levels (Fontana-Masson staining): increases melanin levels
[7]; 10 nM αMSH1-13 vs vehicle
  tyrosinase mRNA expression: stimulates tyrosinase expression
